# Assays:
# [1] = system: Murine p185+ B-ALL cells expressing human MCL-1; test: Engineered murine B-cell ALL lines, cell viability (CellTiter-Glo); type: cell-based; conditions: Mus musculus, 24 hours, 10% fetal bovine serum
# Experimental: Supplementary Table S3: Cellular potency and selectivity of ABBV-467 in
# engineered murine B-c ell ALL c ell li nes
# B-Cell ALL Lines (EC50, nM)
# BCL-XL BCL-2 BCL-w BCL2A1 MCL-1
# Murine p185+ B-ALL cells selectiv ely expressing individual human anti–BCL-2 family members (36)
# were treated with ABBV-467 for 24 hours in RPMI-1640 media ( Life Technologies, CA) containing
# 10% fetal bovine serum, 55 μM 2 -mercaptoethanol, 2 mM glutamine, and 1%
# penicil lin/ stre ptomycin an d th e i mpact on cell via bility de termi ned usi ng Ce llTiter- Glo. Each EC50 was
# calculated from the resulting dose- response curves. Data are presented as the mean of three
# independent experiments, except *(n=2). Where an EC50 could not be accurately determined,
# activity was define d as >3,000 nM.
# ALL, acute lymphoblastic leukemia; BCL- 2, B-cell lymphoma 2; EC 50, half maximal effective
# OPM-2 xenografts = test: OPM-2 xenograft efficacy (tumor volume, body weight); type: in vivo, mouse; conditions: 6.25 mg/kg IV once weekly for 3 weeks
# Experimental: All animal studies were conducted in accordance with the guidelines approved by the Institutional Animal Care and Use Committees of AbbVie. The research protocol was approved by In Vivo Pharmacology at AbbVie prior to study initiation but was not publicly registered or disclosed. Female C.B-17 SCID-beige mice (AMO-1, OPM-2, NCI-H929, and OCI-AML2 xenografts) and female NSG mice (MV4-11-Red.Fluc systemic) were purchased from Charles River Laboratories (Wilmington, MA). Animals were housed in a light cycle-controlled room with HEPA filtration at 22 °C. Animals had nesting and climbing cage topper as the primary environmental enrichment. Animals were inoculated subcutaneously in the right flank with 5 × 10^6 (AMO-1, OPM-2, NCI-H929, and OCI-AML2) or intravenous (IV) with 5 × 10^6 (MV4-11-Red.Fluc). The inoculation volume (0.2 mL) comprised a 50:50 mixture of cells in growth media and Matrigel (BD Biosciences) for subcutaneous injections and 100% phosphate-buffered saline for IV administration. All cell lines used in this publication were authenticated using IDEXX for STR profiling as well as their IMPACT and human IMPACT panels for pathogen screening. Electronic calipers were used to measure the length and width of each tumor 2 to 3 times per week. Tumor volume was estimated by applying the following equation: volume = length × width^2/2. All groups remained blinded during measurements and dosing; only veterinary staff were aware of group identity. When tumors reached approximately 200 mm^3, mice were randomized by match and distributed into treatment and control groups. All xenograft trials were conducted using 5 to 10 mice per group, and all mice were ear tagged and monitored individually throughout the studies. Any animal with a tumor above 2000 mm^3 or 15% loss in body weight was euthanized and removed from the study. Tumor burden in the systemic MV4-11-Red.Fluc experiment was measured using an IVIS® spectrum from PerkinElmer by taking the total photon flux of the entire dorsal side of an individual mouse. Ten minutes prior to imaging, animals received intraperitoneally 0.2 mL of a 15-mg/mL solution of D-Luciferin (PerkinElmer, Catalog #122799) formulated in 100% phosphate-buffered saline. Animals were anesthetized using 3.5% isoflurane and maintained using 2%. Six days after inoculation, animals were imaged and randomized into vehicle and treatment groups at a total flux of ~1 × 10^8. A background control mouse that was tumor naive but received D-Luciferin was placed in the upper left corner of each image. The total flux from this animal was subtracted from the total flux of each animal present in the image.
# For in vivo studies, maximal tumor growth inhibition (TGI) was calculated as the greatest treatment response using the following equation: Maximal TGI = (1 − mean tumor volume of the treated group/mean tumor volume of the vehicle control group) × 100. The tumor growth delay (TGD) percentage was determined as the percentage increase of the median time period for the treatment group to reach an arbitrary tumor volume of 1000 mm^3 relative to the vehicle control group. […] A power analysis was conducted using historical data to determine the number of animals required to yield significance of 0.05 at a 30% difference. There were no animals excluded. Data from experiments in vivo were analyzed using the student’s t-test for TGI values and the Mann–Whitney U test for TGD using Excel and GraphPad Prism. Fisher’s exact test was used to probe significance of differences in response frequency.
# Kv11.1 (hERG) = Kv11.1 (hERG) (Homo sapiens, UniProt Q12809); test: in vitro; conditions: CHO cells expressing human Kv11.1 (hERG)
# Kv11.1 (hERG), sequence (Q12809 whole entry, the tested form may be a part): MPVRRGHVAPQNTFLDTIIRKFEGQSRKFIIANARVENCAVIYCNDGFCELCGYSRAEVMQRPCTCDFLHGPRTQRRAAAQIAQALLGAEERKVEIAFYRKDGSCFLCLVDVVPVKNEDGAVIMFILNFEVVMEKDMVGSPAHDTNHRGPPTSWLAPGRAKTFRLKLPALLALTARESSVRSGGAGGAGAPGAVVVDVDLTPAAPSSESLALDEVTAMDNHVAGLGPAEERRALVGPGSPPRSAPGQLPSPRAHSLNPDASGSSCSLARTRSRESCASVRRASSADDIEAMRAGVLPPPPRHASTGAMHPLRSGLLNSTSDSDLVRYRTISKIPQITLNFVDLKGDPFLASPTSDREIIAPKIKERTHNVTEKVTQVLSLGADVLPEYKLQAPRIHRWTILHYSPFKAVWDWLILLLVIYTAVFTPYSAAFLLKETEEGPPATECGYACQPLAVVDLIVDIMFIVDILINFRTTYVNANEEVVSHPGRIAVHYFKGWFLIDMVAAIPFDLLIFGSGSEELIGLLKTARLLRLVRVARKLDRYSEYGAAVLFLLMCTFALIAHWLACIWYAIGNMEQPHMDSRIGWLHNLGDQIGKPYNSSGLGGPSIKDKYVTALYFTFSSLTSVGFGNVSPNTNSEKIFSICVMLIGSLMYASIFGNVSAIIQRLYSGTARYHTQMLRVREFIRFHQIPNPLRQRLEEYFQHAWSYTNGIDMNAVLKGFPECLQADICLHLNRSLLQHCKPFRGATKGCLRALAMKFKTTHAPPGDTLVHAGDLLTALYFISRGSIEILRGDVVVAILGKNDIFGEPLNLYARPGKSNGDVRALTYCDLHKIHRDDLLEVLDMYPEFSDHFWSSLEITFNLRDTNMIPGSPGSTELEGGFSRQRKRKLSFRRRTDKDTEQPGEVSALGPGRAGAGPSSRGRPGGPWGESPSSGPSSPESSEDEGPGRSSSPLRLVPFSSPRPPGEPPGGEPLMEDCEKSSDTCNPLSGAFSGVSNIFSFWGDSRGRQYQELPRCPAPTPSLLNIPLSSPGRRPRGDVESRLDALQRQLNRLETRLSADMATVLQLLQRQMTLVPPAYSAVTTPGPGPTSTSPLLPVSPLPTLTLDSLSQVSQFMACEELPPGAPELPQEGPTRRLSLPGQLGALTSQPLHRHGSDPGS
# [2] = 4-week (5-dose) IV infusion toxicity study with 4-week recovery; conditions: rats
# Experimental: range-finding studies, and 4-we ek (5-dose) with recovery GLP studies in rats and dogs. For all studies, test item was
# administered once weekly by 30 -minute IV infusion. Standard GLP endpoints were assessed including in- life (body weights,
# clinical observations, eye exams), electro cardiograms (dog s only), clinical pathology (hematology, clinical chemistry, and
# coagulation) and anatomic pathology (macroscopic and mic roscopic observations and organ weights).
# Study design was generally in compliance with FDA Redbook
# Guidance IV.C. 3.a. and IV.C.3. b. sections on short-term toxicity studies with rodents and non- rodents, respectively (viz.
# Studies were appr oved by the animal use committee of Charles River Laboratories, Mattawan, MI. No animals or
# data were excluded from analysis. Healthy dogs, as determined by veterinary physical examination and clinical pathology,
# were randomized between dose groups using laboratory information management softw are.
compound,measurement,setting,value
Cc1c(Cl)c2c(Cl)c(C)c1-c1c(-c3ccc(F)cc3)sc3ncnc(c13)O[C@@H](C(=O)O)Cc1cc(ccc1OCc1ccnc(-c3ccc(OC[C@H]4COCCO4)cc3)n1)OC[C@@H](CN1CCN(C)CC1)O2 [ABBV-467],EC50,[1],20.3 nM
same,maximal TGD,OPM-2 xenografts,82%
same,IC50,Kv11.1 (hERG),> 30000 nM
same,"impact on cardiovascular endpoints (anatomic, clinical pathology, and/or function)",[2]; multidose GLP toxicity study,No direct impact
same,reversibility of toxicities,[2]; after a 4-week recovery period,partially or fully reversible
same,primary target organs of apoptosis/single-cell necrosis,[2]; once-weekly dosing,"pancreas, liver, gastrointestinal tract, and the hematopoietic system"

# Reference: article PMC10600239, “Selective MCL-1 inhibitor ABBV-467 is efficacious in tumor models but is associated with cardiac troponin increases in patients” (Communications Medicine, 2023)
